One series deals with Acetylcholinesterase (Electrophorus electricus, UniProt O42275).
The target in another series is Cholinesterase (Equus caballus, UniProt P81908).
In a further series the test system is HepG2. The series is described as follows: cells. Conditions: Homo sapiens, HepG2, 48 h.
A short description of series [1]: Solubility of the compound. It is filed as physicochemical.

Experimental findings from ChEMBL document CHEMBL3286236, “Novel aromatic-polyamine conjugates as cholinesterase inhibitors with notable selectivity toward butyrylcholinesterase” (Bioorg Med Chem, 2014) are described below.

Acetylcholinesterase, sequence (O42275 whole entry): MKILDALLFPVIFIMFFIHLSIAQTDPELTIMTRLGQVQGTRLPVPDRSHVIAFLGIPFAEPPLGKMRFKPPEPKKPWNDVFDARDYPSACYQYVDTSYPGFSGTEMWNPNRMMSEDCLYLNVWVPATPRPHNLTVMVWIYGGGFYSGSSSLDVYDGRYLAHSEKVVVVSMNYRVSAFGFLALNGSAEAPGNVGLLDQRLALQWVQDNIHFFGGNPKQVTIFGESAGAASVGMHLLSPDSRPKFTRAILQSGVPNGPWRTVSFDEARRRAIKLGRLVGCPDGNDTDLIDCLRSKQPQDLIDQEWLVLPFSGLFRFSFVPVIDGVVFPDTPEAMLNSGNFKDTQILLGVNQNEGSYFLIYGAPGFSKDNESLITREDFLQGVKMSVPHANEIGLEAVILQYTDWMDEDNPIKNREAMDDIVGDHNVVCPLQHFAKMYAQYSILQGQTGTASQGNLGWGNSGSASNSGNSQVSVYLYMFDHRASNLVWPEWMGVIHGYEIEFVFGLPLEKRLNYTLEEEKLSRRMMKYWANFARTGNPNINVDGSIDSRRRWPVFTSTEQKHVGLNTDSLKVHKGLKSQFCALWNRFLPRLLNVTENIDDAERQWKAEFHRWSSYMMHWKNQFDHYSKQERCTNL
Cholinesterase, sequence (P81908 whole entry): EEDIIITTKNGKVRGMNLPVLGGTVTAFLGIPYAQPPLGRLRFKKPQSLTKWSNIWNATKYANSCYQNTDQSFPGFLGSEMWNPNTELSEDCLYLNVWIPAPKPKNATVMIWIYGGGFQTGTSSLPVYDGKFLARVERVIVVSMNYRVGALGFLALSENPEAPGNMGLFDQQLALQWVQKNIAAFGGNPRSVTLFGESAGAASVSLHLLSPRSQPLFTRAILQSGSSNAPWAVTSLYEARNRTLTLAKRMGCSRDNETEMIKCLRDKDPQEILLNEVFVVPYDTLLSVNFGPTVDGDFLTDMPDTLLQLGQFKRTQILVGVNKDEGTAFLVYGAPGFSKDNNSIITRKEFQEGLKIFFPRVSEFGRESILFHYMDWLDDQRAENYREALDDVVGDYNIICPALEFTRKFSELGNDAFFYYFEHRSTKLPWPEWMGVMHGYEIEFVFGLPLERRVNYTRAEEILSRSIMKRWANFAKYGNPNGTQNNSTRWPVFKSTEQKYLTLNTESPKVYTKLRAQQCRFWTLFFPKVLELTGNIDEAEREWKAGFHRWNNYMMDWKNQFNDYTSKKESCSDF
Description for Acetylcholinesterase: Inhibition of electric eel AChE using acetylthiocholine chloride as substrate by spectrophotometer analysis

Consider `NCCCNCCCCNCC(=O)Nc1c2ccccc2cc2ccccc12`, for which the IC50 – broadly, the midpoint of a concentration-inhibition curve – at Acetylcholinesterase is 25.1 µM; on Cholinesterase, 0.164 µM; with HepG2, > 100 µM.
For `NCCCNCC(=O)Nc1c2ccccc2cc2ccccc12` the same measures were > 50 µM, 0.28 µM and > 100 µM.
With `CCN(CC)CC(=O)Nc1c2ccccc2cc2ccccc12.Cl`, the solubility result in series [1] is listed as “Insoluble”.
Take `O=C(CNCCCO)Nc1cccc2ccccc12`: the IC50 against Acetylcholinesterase is > 50 µM; at Cholinesterase, > 50 µM; in the series on HepG2 it was > 100 µM.
In the case of `O=C1c2c(O)ccc(O)c2C(=O)c2c(NCCNCCO)ccc(NCCNCCO)c21` [MITOXANTRONE], in the series with HepG2, the IC50 stood at 11.1 µM.
Regarding `NCCCCCCNCC(=O)Nc1c2ccccc2cc2ccccc12`, the IC50 at Acetylcholinesterase was 2.74 µM; against Cholinesterase, 0.023 µM; with HepG2 it was > 100 µM.
For `NCCCCNCC(=O)Nc1cccc2c1C(=O)c1ccccc1C2=O` the same measures were 1.5 µM, > 50 µM and 24.2 µM.
For `NCCCNCCCCNCCCNCC(=O)Nc1cccc2ccccc12`, in that order: > 50 µM, > 50 µM and > 100 µM.
For `NCCCNCCCCNCC(=O)Nc1cccc2c1C(=O)c1ccccc1C2=O`, in that order: 2.63 µM, 33 µM and 15.6 µM.
As for `CN(C)CCNCC(=O)Nc1c2ccccc2cc2ccccc12`, the IC50 at Acetylcholinesterase is > 50 µM; against Cholinesterase, 0.161 µM; in the series with HepG2, > 100 µM.
Take `O=C(CNCCCO)Nc1c2ccccc2cc2ccccc12`: the half-inhibitory concentration (IC50) is > 50 µM against Acetylcholinesterase, 0.502 µM against Cholinesterase and > 100 µM in the series with HepG2.
For `NCCCNCCCCNCCCNCC(=O)Nc1cccc2c1C(=O)c1ccccc1C2=O`, in that order: 7.22 µM, > 50 µM and 11.5 µM.
For `NCCCCNCC(=O)Nc1cccc2ccccc12`, in that order: > 50 µM, 10.3 µM and > 100 µM.
For `O=C(CNCCCO)Nc1cccc2c1C(=O)c1ccccc1C2=O` the same measures were 11.1 µM, > 50 µM and 23 µM.
In the case of `Cl.O=C(CNC1CC1)Nc1c2ccccc2cc2ccccc12`, in series [1], the solubility result is “Insoluble”.
For the molecule `CN(C)CCNCC(=O)Nc1cccc2ccccc12`, the values for the half-maximal inhibitory concentration (IC50) against Acetylcholinesterase, against Cholinesterase and in the series on HepG2 were > 50 µM, 4.39 µM and > 100 µM, respectively.
As for `NCCCNCCCCNCC(=O)Nc1cccc2ccccc12`, the figures for the IC50 on Acetylcholinesterase, against Cholinesterase and in the series with HepG2 were > 50 µM, 47.5 µM and > 100 µM, respectively.
For the molecule `NCCCNCCCCNCCCNCC(=O)Nc1c2ccccc2cc2ccccc12`, the 50% inhibitory concentration (IC50) on Acetylcholinesterase was > 50 µM; against Cholinesterase it was 0.657 µM; in the series with HepG2, > 100 µM.
For `NCCCCNCC(=O)Nc1c2ccccc2cc2ccccc12` the same measures were > 50 µM, 0.016 µM and > 100 µM.
For `NCCCNCCCNCC(=O)Nc1c2ccccc2cc2ccccc12` the same measures were > 50 µM, 0.305 µM and > 100 µM.
